# In article PMC5538713, “RORγt and RORα signature genes in human Th17 cells” (PLoS ONE, 2017):
# Where two headings read alike, the source gives them in different places.
# Experiments:
# SK+ Ca = assay: Cerep selectivity panel; assay type: binding
# A1 (h) = target: T1, A1 (h) (Homo sapiens, UniProt P30542); assay: Cerep selectivity panel; assay type: binding; details: for inhibition at 1 µM: read-out: % Inhibition at 1µM; for inhibition at 10 µM: read-out: % Inhibition at 10µM
# T1 construct: purchased Cerep
# T1 sequence (P30542 1-326): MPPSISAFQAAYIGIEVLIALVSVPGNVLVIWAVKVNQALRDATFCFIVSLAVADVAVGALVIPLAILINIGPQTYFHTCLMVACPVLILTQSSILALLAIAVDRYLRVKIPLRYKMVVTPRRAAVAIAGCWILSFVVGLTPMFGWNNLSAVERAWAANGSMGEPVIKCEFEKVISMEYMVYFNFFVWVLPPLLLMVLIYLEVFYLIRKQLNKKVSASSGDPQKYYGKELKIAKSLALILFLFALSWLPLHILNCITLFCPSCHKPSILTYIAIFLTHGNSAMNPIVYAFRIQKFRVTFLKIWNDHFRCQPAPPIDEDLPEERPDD
# How it was run: (§1)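 Tested at 1 µM and 10 µM in a 50-target selectivity panel spanning receptors, ion channels and transporters.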
# ETA (h) = target: T2, ETA (h) (Homo sapiens, UniProt P25101); assay: Cerep selectivity panel; assay type: binding; details: for inhibition at 10 µM: read-out: % Inhibition at 10µM
# T2 construct: purchased Cerep
# T2 sequence (P25101 21-427): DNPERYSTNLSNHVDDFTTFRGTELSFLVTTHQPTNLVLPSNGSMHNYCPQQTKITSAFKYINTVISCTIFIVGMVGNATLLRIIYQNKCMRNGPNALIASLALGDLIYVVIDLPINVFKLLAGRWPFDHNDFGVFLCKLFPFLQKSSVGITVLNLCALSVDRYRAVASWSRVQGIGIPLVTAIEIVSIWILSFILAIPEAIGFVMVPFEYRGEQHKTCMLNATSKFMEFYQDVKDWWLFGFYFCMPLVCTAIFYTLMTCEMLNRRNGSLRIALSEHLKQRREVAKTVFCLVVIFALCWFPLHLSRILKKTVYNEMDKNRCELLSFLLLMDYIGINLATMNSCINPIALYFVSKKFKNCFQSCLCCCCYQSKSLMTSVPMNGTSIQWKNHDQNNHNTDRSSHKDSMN
# How it was run: as §1
# 5HT7 (h) = target: T3, 5HT7 (h) (Homo sapiens, UniProt P34969); assay: Cerep selectivity panel; assay type: binding; details: for inhibition at 10 µM: read-out: % Inhibition at 10µM
# T3 construct: purchased Cerep
# How it was run: as §1
# 5HT1A (h) = target: T4, 5HT1A (h) (Homo sapiens, UniProt P08908); assay: Cerep selectivity panel; assay type: binding
# T4 construct: purchased Cerep
# How it was run: as §1
# 5HT1B = target: T5, 5HT1B (Rattus norvegicus, UniProt P28564); assay: Cerep selectivity panel; assay type: binding
# T5 construct: purchased Cerep
# How it was run: as §1
# ɣ1 (h) = target: T6, ɣ1 (h) (Homo sapiens, UniProt P25929); assay: Cerep selectivity panel; assay type: binding; details: for inhibition at 1 µM: read-out: % Inhibition at 1µM
# T6 construct: purchased Cerep
# T6 sequence (P25929 1-384): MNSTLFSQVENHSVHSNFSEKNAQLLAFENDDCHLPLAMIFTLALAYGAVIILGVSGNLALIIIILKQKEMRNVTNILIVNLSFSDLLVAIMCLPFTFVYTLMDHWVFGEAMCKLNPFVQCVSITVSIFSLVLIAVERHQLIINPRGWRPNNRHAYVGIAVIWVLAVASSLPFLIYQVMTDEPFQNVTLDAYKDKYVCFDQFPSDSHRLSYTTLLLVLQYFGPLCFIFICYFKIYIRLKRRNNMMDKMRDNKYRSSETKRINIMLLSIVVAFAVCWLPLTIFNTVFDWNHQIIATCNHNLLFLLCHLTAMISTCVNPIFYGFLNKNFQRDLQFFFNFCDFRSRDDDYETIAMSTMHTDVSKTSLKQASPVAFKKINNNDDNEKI
# How it was run: as §1
# SST = assay: Cerep selectivity panel; assay type: binding
# How it was run: as §1
# Ca2+ Channel = assay: Cerep selectivity panel; assay type: binding
# How it was run: as §1
# VIP 1 (h) = target: T7, VIP 1 (h) (Homo sapiens, UniProt P32241); assay: Cerep selectivity panel; assay type: binding
# T7 construct: purchased Cerep
# How it was run: as §1
# Na+ Channel = assay: Cerep selectivity panel; assay type: binding
# K Channel = assay: Cerep selectivity panel; assay type: binding
# CCKA (h) = target: T8, CCKA (h) (Homo sapiens, UniProt P32238); assay: Cerep selectivity panel; assay type: binding
# T8 construct: purchased Cerep
# How it was run: as §1
# M1 (h) = target: T9, M1 (h) (Homo sapiens, UniProt P11229); assay: Cerep selectivity panel; assay type: binding
# T9 construct: purchased Cerep
# T9 sequence (P11229 1-460): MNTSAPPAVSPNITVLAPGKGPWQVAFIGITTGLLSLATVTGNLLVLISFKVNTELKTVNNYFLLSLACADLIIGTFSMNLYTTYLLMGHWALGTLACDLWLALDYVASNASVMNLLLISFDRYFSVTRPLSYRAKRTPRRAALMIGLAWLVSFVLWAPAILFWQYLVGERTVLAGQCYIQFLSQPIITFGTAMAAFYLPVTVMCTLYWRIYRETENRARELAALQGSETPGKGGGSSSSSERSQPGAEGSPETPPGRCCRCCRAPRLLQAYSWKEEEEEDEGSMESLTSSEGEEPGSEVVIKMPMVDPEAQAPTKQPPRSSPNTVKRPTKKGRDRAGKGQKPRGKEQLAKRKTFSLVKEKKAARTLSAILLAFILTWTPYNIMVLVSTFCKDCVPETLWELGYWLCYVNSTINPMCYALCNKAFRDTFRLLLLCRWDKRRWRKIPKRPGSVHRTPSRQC
# How it was run: as §1
# CCR1 (h) = target: T10, CCR1 (h) (Homo sapiens, UniProt P32246); assay: Cerep selectivity panel; assay type: binding
# T10 construct: purchased Cerep
# How it was run: as §1
# human RORγt LBD = target: T11, human RORγt LBD (Homo sapiens, UniProt P51449); assay: RORγt cellular reporter assay (GAL4-RORγt LBD luciferase, HEK293T); assay type: cell-based; details: 24 hours, read-out: RORγ/γt Cellular Reporter Assay (IC50)
# T11 construct: expressed in transfected cells; host or cells: HEK293T
# Method: Media was removed and cells were lysed with 50 μL 1x Glo Lysis Buffer (Promega). […] To calculate the effect of compounds on RORγt activity, the ratio of firefly to renilla luciferase was determined and plotted against compound concentration. Agonist compounds increase RORγt-driven luciferase expression, and antagonist or inverse agonist compounds decrease luciferase expression. IC50 values were determined using Graphpad Prism.
# GAL2 (h) = target: T12, GAL2 (h) (Homo sapiens, UniProt O43603); assay: Cerep selectivity panel; assay type: binding
# T12 construct: purchased Cerep
# How it was run: as §1
# T3 sequence (P34969 whole entry): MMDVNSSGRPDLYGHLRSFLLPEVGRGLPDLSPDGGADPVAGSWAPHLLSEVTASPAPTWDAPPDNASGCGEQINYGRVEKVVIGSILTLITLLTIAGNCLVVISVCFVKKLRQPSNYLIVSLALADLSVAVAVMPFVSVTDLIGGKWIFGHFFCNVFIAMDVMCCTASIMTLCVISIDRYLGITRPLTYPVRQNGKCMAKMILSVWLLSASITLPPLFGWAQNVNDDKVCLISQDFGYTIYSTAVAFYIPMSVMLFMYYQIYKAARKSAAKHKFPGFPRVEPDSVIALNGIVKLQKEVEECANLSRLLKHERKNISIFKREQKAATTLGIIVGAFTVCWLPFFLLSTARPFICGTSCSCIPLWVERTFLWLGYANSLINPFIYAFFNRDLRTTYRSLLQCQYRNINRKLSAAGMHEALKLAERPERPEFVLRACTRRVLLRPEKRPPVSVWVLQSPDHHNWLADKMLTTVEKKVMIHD
# T4 sequence (P08908 whole entry): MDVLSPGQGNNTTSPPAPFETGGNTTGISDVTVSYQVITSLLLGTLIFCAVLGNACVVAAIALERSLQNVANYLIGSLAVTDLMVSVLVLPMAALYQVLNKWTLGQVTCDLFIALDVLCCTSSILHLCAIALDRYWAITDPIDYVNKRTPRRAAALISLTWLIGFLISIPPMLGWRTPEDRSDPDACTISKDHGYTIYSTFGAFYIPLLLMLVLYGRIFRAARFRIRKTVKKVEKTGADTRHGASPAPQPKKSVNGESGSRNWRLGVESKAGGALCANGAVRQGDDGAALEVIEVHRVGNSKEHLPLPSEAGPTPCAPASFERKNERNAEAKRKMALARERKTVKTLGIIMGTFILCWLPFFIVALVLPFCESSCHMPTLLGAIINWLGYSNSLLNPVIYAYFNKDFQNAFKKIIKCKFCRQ
# T10 sequence (P32246 whole entry): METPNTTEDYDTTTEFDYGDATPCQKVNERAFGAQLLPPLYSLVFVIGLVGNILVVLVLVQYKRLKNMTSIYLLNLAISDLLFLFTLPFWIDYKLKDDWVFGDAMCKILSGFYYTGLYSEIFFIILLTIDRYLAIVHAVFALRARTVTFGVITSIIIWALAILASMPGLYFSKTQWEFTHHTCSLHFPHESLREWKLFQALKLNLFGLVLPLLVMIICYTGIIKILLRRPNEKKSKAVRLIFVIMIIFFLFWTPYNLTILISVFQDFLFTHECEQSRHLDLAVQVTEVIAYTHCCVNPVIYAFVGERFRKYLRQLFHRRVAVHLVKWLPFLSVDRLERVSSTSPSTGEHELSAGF
# T11 sequence (P51449 269-508 limits assumed): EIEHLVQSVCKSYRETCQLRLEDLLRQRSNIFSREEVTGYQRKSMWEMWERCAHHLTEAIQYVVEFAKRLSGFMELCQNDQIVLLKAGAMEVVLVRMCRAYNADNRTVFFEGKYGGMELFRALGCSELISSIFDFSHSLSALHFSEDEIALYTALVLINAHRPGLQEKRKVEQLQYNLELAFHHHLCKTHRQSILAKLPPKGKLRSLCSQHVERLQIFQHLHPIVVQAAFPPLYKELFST
# T8 sequence (P32238 whole entry): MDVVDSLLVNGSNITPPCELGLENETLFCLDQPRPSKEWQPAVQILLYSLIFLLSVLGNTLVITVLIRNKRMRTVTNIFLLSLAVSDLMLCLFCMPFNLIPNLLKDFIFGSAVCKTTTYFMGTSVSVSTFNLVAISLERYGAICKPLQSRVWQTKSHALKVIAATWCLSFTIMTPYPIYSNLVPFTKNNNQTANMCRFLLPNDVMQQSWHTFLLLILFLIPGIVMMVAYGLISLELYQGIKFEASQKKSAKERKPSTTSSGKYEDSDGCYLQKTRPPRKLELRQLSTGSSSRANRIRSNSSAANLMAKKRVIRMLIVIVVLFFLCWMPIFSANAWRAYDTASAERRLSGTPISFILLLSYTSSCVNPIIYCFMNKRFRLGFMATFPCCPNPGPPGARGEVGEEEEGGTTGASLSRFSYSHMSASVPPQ
# T7 sequence (P32241 31-457): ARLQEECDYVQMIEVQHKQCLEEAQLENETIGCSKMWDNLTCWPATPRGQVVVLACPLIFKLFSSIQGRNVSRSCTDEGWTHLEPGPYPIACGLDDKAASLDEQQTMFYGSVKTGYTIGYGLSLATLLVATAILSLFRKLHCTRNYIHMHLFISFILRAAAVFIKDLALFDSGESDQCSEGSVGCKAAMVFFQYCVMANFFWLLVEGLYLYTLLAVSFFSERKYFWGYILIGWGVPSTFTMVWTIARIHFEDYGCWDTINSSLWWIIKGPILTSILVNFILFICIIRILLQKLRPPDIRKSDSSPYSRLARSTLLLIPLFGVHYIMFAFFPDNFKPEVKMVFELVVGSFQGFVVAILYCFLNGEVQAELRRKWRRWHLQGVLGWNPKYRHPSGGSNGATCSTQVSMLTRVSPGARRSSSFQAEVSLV
# T12 sequence (O43603 whole entry): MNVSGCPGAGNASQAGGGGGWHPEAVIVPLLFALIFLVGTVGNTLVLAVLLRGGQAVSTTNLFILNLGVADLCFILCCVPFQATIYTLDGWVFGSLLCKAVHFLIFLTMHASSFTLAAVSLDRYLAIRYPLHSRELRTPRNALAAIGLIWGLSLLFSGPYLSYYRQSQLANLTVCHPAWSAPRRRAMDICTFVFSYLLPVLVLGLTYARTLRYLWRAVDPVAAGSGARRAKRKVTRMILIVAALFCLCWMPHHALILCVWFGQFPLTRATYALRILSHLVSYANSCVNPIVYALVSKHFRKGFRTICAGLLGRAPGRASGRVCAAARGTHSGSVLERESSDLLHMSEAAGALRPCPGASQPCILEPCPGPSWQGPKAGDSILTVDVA
# T5 sequence (P28564 whole entry): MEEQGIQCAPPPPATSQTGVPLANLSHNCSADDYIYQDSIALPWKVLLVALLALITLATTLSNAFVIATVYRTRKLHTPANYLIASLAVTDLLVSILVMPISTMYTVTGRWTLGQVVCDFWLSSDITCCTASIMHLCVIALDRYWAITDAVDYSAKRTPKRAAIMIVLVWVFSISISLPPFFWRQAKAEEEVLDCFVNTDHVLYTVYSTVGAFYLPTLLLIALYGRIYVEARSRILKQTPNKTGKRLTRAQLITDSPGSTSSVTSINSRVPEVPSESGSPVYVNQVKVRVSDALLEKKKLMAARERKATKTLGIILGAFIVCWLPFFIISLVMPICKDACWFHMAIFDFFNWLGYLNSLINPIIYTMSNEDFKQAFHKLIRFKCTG
smiles,measurement,setting,value
COc1nc2ccc([C@@](O)(c3ccc(C)nc3C)c3cnnn3C)cc2c(Cl)c1Cc1ccc(C(F)(F)F)cc1 [compound A],% Inhibition at 10µM,SK+ Ca,1%
same,inhibition at 1 µM,"A1 (h); A1 (h), 1 µM",19%
same,inhibition at 10 µM,"A1 (h); A1 (h), 10 µM",30%
same,inhibition at 1 µM,"ETA (h); ETA (h), 1 µM",5%
same,inhibition at 10 µM,"ETA (h); ETA (h), 10 µM",4%
same,inhibition at 1 µM,"5HT7 (h); 5HT7 (h), 1 µM",4%
same,inhibition at 10 µM,"5HT7 (h); 5HT7 (h), 10 µM",4%
same,inhibition at 1 µM,5HT1A (h); 1 µM,14%
same,inhibition at 10 µM,5HT1A (h); 10 µM,19%
same,inhibition at 10 µM,5HT1B,1%
same,inhibition at 1 µM,"ɣ1 (h); ɣ1 (h), 1 µM",5%
same,inhibition at 10 µM,"ɣ1 (h); ɣ1 (h), 10 µM",5%
same,% Inhibition at 10µM,SST,6%
same,% Inhibition at 1µM,Ca2+ Channel,2%
same,% Inhibition at 10µM,Ca2+ Channel,32%
same,inhibition at 1 µM,VIP 1 (h),3%
same,% Inhibition at 1µM,Na+ Channel; 1 µM,20%
same,% Inhibition at 10µM,Na+ Channel,45%
same,% Inhibition at 10µM,K Channel,9%
CN(C)c1nc2ccc(C(O)(c3ccncc3)c3cncn3C)cc2c(Cl)c1-c1ccccc1 (stereo not shown) [compound D],inhibition at 1 µM,A1 (h),18%
same,inhibition at 10 µM,A1 (h),50%
same,inhibition at 1 µM,CCKA (h),11%
same,inhibition at 10 µM,5HT7 (h),16%
same,inhibition at 1 µM,ɣ1 (h),16%
same,inhibition at 1 µM,M1 (h),6%
same,inhibition at 10 µM,M1 (h),67%
same,inhibition at 10 µM,CCR1 (h); 10 µM,6%
COc1nc2ccc([C@@](O)(c3ccccc3)C3CCN(C(C)=O)CC3)cc2c(Cl)c1Cc1ccc(-n2cccn2)cc1 [C],% Inhibition at 1µM,SK+ Ca; 1 µM,1%
same,% Inhibition at 10µM,SK+ Ca,5%
same,inhibition at 10 µM,ETA (h),12%
same,inhibition at 1 µM,M1 (h),12%
same,inhibition at 10 µM,M1 (h),21%
same,inhibition at 1 µM,CCR1 (h); 1 µM,17%
same,IC50,human RORγt LBD,28.9 nM
same,% Inhibition at 10µM,K Channel,17%
COc1nc2ccc([C@](O)(c3ccc(Cl)cc3)c3cncn3C)cc2c(Cl)c1Cc1ccc(-n2cccn2)cc1 [B],% Inhibition at 10µM,SST,1%
same,inhibition at 10 µM,GAL2 (h),1%
same,% Inhibition at 1µM,Ca2+ Channel,3%
same,% Inhibition at 10µM,Ca2+ Channel,21%
same,% Inhibition at 10µM,Na+ Channel,3%
